Experimental findings from patent US20150141411A1, “SUBSTITUTED 3,4-DIHYDRO-2H-PYRIDO[1,2-A]PYRAZINE-1,6-DIONE DERIVATIVES USEFUL FOR THE TREATMENT OF (INTER ALIA) ALZHEIMER'S DISEASE” (Janssen Pharmaceuticals, Inc., priority 2012, published 2015) are described below.

The subject of one assay is Aβ38. Description: In vivo efficacy: brain soluble Aβ38 in non-transgenic rodents (MSD electrochemiluminescence multiplex). Further details: species or system mouse. The conditions noted are these: Mus musculus, po, 4 h, dose 30 mg/kg oral dosing, brain soluble fraction, animals sacrificed after 4 h, untreated animals (Ctrl) set at 100, read-out: Aβ38 (% vs Ctrl)_Mean. The text has this: To determine whether acute administration of an Aβ38 increasing agents would increase Aβ38 levels in vivo, non-transgenic rodents, e.g. mice or rats were used. Animals treated with the Aβ38 increasing agents were examined and compared to those untreated or treated with vehicle and brain levels of soluble Aβ42, Aβ40, Aβ38, and Aβ37 were quantitated by MSD electrochemiluminescence detection technology. Treatment periods varied from hours (h) to days and were adjusted based on the results of the Aβ38 increase once a time course of onset of effect could be established.
A typical protocol for measuring Aβ38 increase in vivo is shown but it is only one of many variations that could be used to optimize the levels of detectable Aβ. For example, Aβ38 increasing agents were formulated in 20% of Captisol® (a sulfobutyl ether of β-cyclodextrin) in water or 20% hydroxypropyl βcyclodextrin. The Aβ38 increasing agents were administered as a single oral dose or by any acceptable route of administration to overnight fasted animals. After 4 h, the animals were sacrificed and Aβ38 levels were analysed.
(§1) Blood was collected by decapitation and exsanguinations in EDTA-treated collection tubes. Blood was centrifuged at 1900 g for 10 minutes (min) at 4° C. and the plasma recovered and flash frozen for later analysis. The brain was removed from the cranium and hindbrain. The cerebellum was removed and the left and right hemisphere were separated. The left hemisphere was stored at −18° C. for quantitative analysis of test compound levels. The right hemisphere was rinsed with phosphate-buffered saline (PBS) buffer and immediately frozen on dry ice and stored at −80° C. until homogenization for biochemical assays.
(§2) Mouse brains from non-transgenic animals were resuspended in 8 volumes of 0.4% DEA (diethylamine)/50 mM NaCl containing protease inhibitors (Roche-11873580001 or 04693159001) per gram of tissue, e.g. for 0.158 g brain, add 1.264 ml of 0.4% DEA. All samples were homogenized in the FastPrep-24 system (MP Biomedicals) using lysing matrix D (MPBio #6913-100) at 6 m/s for 20 seconds. Homogenates were centrifuged at 20800×g for 5 min and supernatants collected. Supernatants were centrifuged at 221.300×g for 50 min. The resulting high speed supernatants were then transferred to fresh eppendorf tubes. Nine parts of supernatant were neutralized with 1 part 0.5 M Tris-HCl pH 6.8 and used to quantify Aβ.
(§3) To quantify the amount of Aβ42, Aβ40, Aβ38, and Aβ37 in the soluble fraction of the brain homogenates, simultaneous specific detection of Aβ42, Aβ40, Aβ38, and Aβ37 was performed using MSD's electro-chemiluminescence multiplex detection technology. In this assay purified monoclonal antibodies specific for Abeta37 (JRD/Aβ37/3), Abeta38 (J&JPRD/Aβ38/5), Abeta40 (JRF/cAβ40/28), and Abeta42 (JRF/cAβ42/26) were coated on MSD 4-plex plates. Briefly, the standards (a dilution of synthetic Aβ42, Aβ40, Aβ38, and Aβ37) were prepared in 1.5 ml Eppendorf tube in Ultraculture, with final concentrations ranging from 10000 to 0.3 pg/m. The samples and standards were co-incubated with Sulfo-tag labelled JRF/rAβ/2 antibody to the N-terminus of Aβ as detector antibody. 50 μl of conjugate/sample or conjugate/standards mixtures were then added to the antibody-coated plate. The plate was allowed to incubate overnight at 4° C. in order to allow formation of the antibody-amyloid complex. Following this incubation and subsequent wash steps the assay was finished by adding read buffer according to the manufacturer's instructions (MesoScale Discovery, Gaitherburg, Md.).
(§4) The SULFO-TAG emits light upon electrochemical stimulation initiated at the electrode. MSD Sector instrument SI6000 was used for signal read-out.
In this model a Aβ38 increase compared to untreated animals would be advantageous, in particular a Aβ38 increase with at least 10%, more in particular a Aβ38 increase with at least 20%. […]

The subject of another assay is Aβ42. Description: In vivo efficacy: brain soluble Aβ42 in non-transgenic rodents (MSD electrochemiluminescence multiplex). Further details: species or system mouse. The conditions noted are these: Mus musculus, po, 4 h, dose 30 mg/kg oral dosing, brain soluble fraction, animals sacrificed after 4 h, untreated animals (Ctrl) set at 100, read-out: Aβ42 (% vs Ctrl)_Mean.
Description: To determine whether acute administration of an Aβ42 lowering agent would reduce Aβ42 levels in vivo, non-transgenic rodents, e.g. mice or rats were used. Animals treated with the Aβ42 lowering agent were examined and compared to those untreated or treated with vehicle and brain levels of soluble Aβ42, Aβ40, Aβ38, and Aβ37 were quantitated by Meso Scale Discovery's (MSD) electrochemiluminescence detection technology. Treatment periods varied from hours (h) to days and were adjusted based on the results of the Aβ42 lowering once a time course of onset of effect could be established.
A typical protocol for measuring Aβ42 lowering in vivo is shown but it is only one of many variations that could be used to optimize the levels of detectable Aβ. For example, Aβ42 lowering compounds were formulated in 20% of Captisol® (a sulfo-butyl ether of β-cyclodextrin) in water or 20% hydroxypropyl βcyclodextrin. The Aβ42 lowering agents were administered as a single oral dose or by any acceptable route of administration to overnight fasted animals. After 4 h, the animals were sacrificed and Aβ42 levels were analysed.
as §1, §2
as §3, with “(Meso Scale” for “(MesoScale”
as §4
In this model a Aβ42 lowering compared to untreated animals would be advantageous, in particular a Aβ42 lowering with at least 10%, more in particular a Aβ42 lowering with at least 20%. […]

Molecules are shown by their SMILES.

Regarding `CCn1cc(C(C)N2C(=O)c3ccc(-n4cnc(C)c4)c(=O)n3CC2C)c2cc(Cl)c(F)cc21` (single isomer, unassigned) [compound 192], the response vs control in vivo at 30 mg/kg is 147% with Aβ38 and 39% in the assay on Aβ42.
Taken in the same sequence, the figures for `Cc1cn(-c2ccc3n(c2=O)C[C@@H](C)N(Cc2cc(Br)cc(C(F)(F)F)c2)C3=O)cn1` [compound 145] were 102% and 71%.
Taken in the same sequence, the figures for `Cc1cn(-c2ccc3n(c2=O)CC(C)N(Cc2cc(C(F)(F)F)cc(C(F)(F)F)c2)C3=O)cn1` (stereo not shown) [compound 3] were 133% and 51%.
Consider `Cc1cn(-c2ccc3n(c2=O)C[C@@H](C)N(CCc2cc(C(F)(F)F)cc(C(F)(F)F)c2)C3=O)cn1` [compound 50], for which the response vs control in vivo at 30 mg/kg with Aβ38 is 160%; in the assay on Aβ42, 99%.
Regarding `Cc1cn(-c2ccc3n(c2=O)CC(C)N(C(C)c2cn(C(C)C)c4cc(F)c(Cl)cc24)C3=O)cn1` (single isomer, unassigned) [compound 194], the values for the response vs control in vivo at 30 mg/kg with Aβ38 and in the assay with Aβ42 were 197% and 39%, respectively.
